The numbers were not newly measured in patent US9393184B2, “Oxychlorine oral rinse composition having enhanced oral-tissue compatibility for the destruction of malodorants, their putrefactive microbial sources and gum-disease pathogens and a method for the preparation thereof” (ProFresh Properties Inc., priority 2013, dated 2016), which cites them from elsewhere.

One may read the pKa as the negative logarithm of the acid dissociation constant.

Take `O=C(O)O` [carbonic acid]: the pKa is reported as 6.1.
